Data set [1] is described as follows: Rat in vivo pharmacokinetics study after oral administration of product A, B or C. Set-up: species or system Male Sprague-Dawley (SD) rats; AUC 0→t in product C group, increased to % compared to that in product A or B groups: concentration or dose not given beside the values. The following applies: for AUC(0-t) / AUC(0-inf) / MRT / Tmax / half-life / Cmax: male, Sprague-Dawley, rat, plasma; for AUC(0-t) / AUC(0-inf) / MRT / Tmax / half-life: 10 mL·kg^−1; for AUC(0-t) / AUC 0→t in product C group, increased to % compared to that in product A or B groups: rats; for AUC(0-t): oral product C group; for AUC(0-inf) / MRT / Tmax / half-life / Cmax: po, 10 mL·kg^−1, rats; for half-life: read-out: T 1/2z; for Cmax: mean±SD; for AUC 0→t in product C group, increased to % compared to that in product A or B groups: oral, product C versus product A or B. How it is done: Product A (extract mixed with FLJ extract and water, (1∶1, v / v )), product B (extract mixed with FF extract and water, (1∶1, v / v )) and product C (extract mixed with FLJ and FF extracts, (1∶1, v / v )) were given to oral administration to rats, respectively.
Male SD rats (∼250 g) were kept in an environmentally controlled breeding room (temperature: 20±2°C, relative humidity: 60±5%) for 1 week. […] The rats were randomly divided into three groups with no less than six rats in each group to receive various administrations at a single oral dose (10 mL·kg^−1) by gastric gavage. […] Subsequently, plasma was prepared by centrifugation at 1,816×g, 4°C for 7 min, and immediately analyzed or stored at −70°C for further analysis.
The main pharmacokinetic parameters including the peak plasma concentration (C max), the time to C max (T max), the AUC from 0 to infinity (AUC 0–∞), the AUC form 0 to time (AUC 0–t), mean residence time (MRT), and terminal elimination half-life (T 1/2z) were calculated by the non-compartmental analysis of plasma concentration vs. time data using the “DAS 2.1.1” software (Mathematical Pharmacology Professional Committee of China, Shanghai, China).

The next data set relates to Caco-2 cells. As to the kind of experiment: In vitro Caco-2 monolayer model, apical to basolateral transport (P app). Particulars: Caco-2 monolayer, HBSS pH 6.0, apical to basolateral. It is filed as in vitro ADME, human. How it is done:
Caco-2 cells were cultured in high glucose DMEM with 10% fetal bovine serum, 1% nonessential amino acids. Cells were cultured in a humidified atmosphere of 5% CO2 at 37°C. After reaching 80% confluens, Caco-2 cells were harvested with 0.05% trypsin-EDTA solution and seeded on top of CC inserts in 6-well plates, which has a surface area of 4.2 cm^2, at a density of 1.0×10^5 cells/cm^2. The protocols for cell culture in Transwell inserts were similar to those described previously.
Hank’s balanced salt solution (HBSS) was used as the transport buffer for the transport study in Caco-2 cells monolayer model. It was prepared by dissolving 9.5 grams of commercial available HBSS powder in 1000 mL water.
Cell culture experiments were described previously. Briefly, after culture medium was aspirated, the cell monolayers were washed three times with blank HBSS. […] The monolayers were incubated with the blank HBSS for 1 h with 37°C. Thereafter the incubation medium was aspirated. Afterwards, a solution containing the compound was loaded onto the apical side. The amounts of transported compound were measured as a function of time. […] The samples were taken at 0, 1, 2, 3 and 4 h after incubation. At the end of the transport experiment, integrity of the monolayer was monitored by TEER value.
(In general: Caco-2 monolayers are a common model of the intestinal barrier.)

The next data set deals with P-gp, MRP2 and BCRP. Set-up: method as in PMID 24035225, PMID 25442264. Particulars: previous study; ref [21]–[22]; cited from earlier work.
Setting [2] is: single oral dose 10 mL·kg^−1 of product A (FLJ extract and water 1:1).
The mark [3] stands for this setting: single oral dose 10 mL·kg^−1 of product C (FLJ and FF extracts 1:1).

Molecules are shown by their SMILES. Like-named read-outs stand apart in the source and are kept apart here.

As usually defined, the AUC(0-t) is the area under the concentration-time curve up to a stated or last time point. As usually defined, the AUC(0-inf) is the area under the concentration-time curve extrapolated to infinity. For orientation: MRT means a mean duration of stay, worked out from the concentration-time curve. A word on the Tmax: it is the time at which the peak concentration occurs. What is called Cmax is the peak of the concentration-time curve.

On to `O=C(/C=C/c1ccc(O)c(O)c1)O[C@H]1[C@H](O)C[C@](O)(C(=O)O)C[C@H]1O` [Cryptochlorogenic acid], for which, in data set [1], the AUC(0-t) was 321 ng·h/mL and the “AUC 0→t in product C group, increased to % compared to that in product A or B groups” value was 235%. In addition, in data set [1] (oral product A), the area under the curve AUC(0-inf) is 196 ng·h/mL, the mean residence time (MRT) was 5.55 h, the time to peak (Tmax) was 0.167 h and the half-life came to 1.73 ± 0.782 h. In addition, in data set [1] (oral product C), the area under the curve AUC(0-inf) was 351 ng·h/mL, the MRT is 7.55 h, the Tmax is 0.167 h and the half-life is 4.65 ± 0.287 h. The Cmax in data set [1] (setting [2]) came out at 352 ± 29.4 ng/mL. This molecule also showed a peak concentration (Cmax) in data set [1] (setting [3]) of 449 ± 22.8 ng/mL. The “P app in product C group, % compared to that in product A group” value in the data set with Caco-2 cells is on record as 133%. In the data set with P-gp, MRP2 and BCRP, the “efflux transporters influencing the intestinal absorption” value is “influenced by P-gp, MRP2 and BCRP”.
Take `C[C@@H]1O[C@@H](OC[C@H]2O[C@@H](OCCc3ccc(O)c(O)c3)[C@H](O)[C@@H](O)[C@@H]2OC(=O)/C=C/c2ccc(O)c(O)c2)[C@H](O)[C@H](O)[C@H]1O` [Forsythoside A]: in data set [1], the area under the curve AUC(0-t) was 420 ng·h/mL and the “AUC 0→t in product C group, increased to % compared to that in product A or B groups” value was 230%. In data set [1] (oral product B), the AUC(0-inf) was 229 ng·h/mL, the MRT was 3.75 h, the Tmax was 0.167 h and the half-life was found to be 4.6 ± 1.04 h. Moreover, in data set [1] (oral product C), the AUC(0-inf) was 773 ng·h/mL, the mean residence time MRT was 7.53 h, the time of peak concentration (Tmax) was 0.167 h and the half-life is 5.98 ± 0.357 h. For the same molecule, the Cmax in data set [1] (single oral dose 10 mL·kg^−1 of product B (FF extract and water 1:1)) was 102 ± 6.19 ng/mL. For the same molecule, in data set [1] (setting [3]), the maximum concentration (Cmax) was determined as 182 ± 38.6 ng/mL. In addition, in the data set on Caco-2 cells, the “P app in product C group, % compared with that in product B group” value was found to be 165%. For the same molecule, the “efflux transporters influencing the intestinal absorption” value with P-gp, MRP2 and BCRP is “affected by P-gp and MRP2, not BCRP”.
As for `O=C(/C=C/c1ccc(O)c(O)c1)O[C@@H]1C[C@@](O)(C(=O)O)C[C@@H](O)[C@@H]1O` [Neochlorogenic acid], in data set [1], the AUC(0-t) is 259 ng·h/mL and the “AUC 0→t in product C group, increased to % compared to that in product A or B groups” value was found to be 286%. Moreover, in data set [1] (oral product A), the AUC(0-inf) is 138 ng·h/mL, the MRT was 5.37 h, the time to peak (Tmax) is 0.167 h and the half-life amounted to 7.63 ± 0.637 h. Also, in data set [1] (oral product C), the AUC(0-inf) is 404 ng·h/mL, the mean residence time MRT was 6.45 h, the time of peak concentration (Tmax) was 0.167 h and the half-life is 8.58 ± 0.467 h. In data set [1] (setting [2]), this molecule displayed a Cmax of 75.7 ± 30.1 ng/mL. The same molecule yielded a peak concentration (Cmax) in data set [1] (setting [3]) of 181 ± 65 ng/mL. In the data set on Caco-2 cells, the “P app in product C group, % compared to that in product A group” value is 136%. The “efflux transporters influencing the intestinal absorption” value in the data set with P-gp, MRP2 and BCRP is “influenced by P-gp, MRP2 and BCRP”.

The values above are taken from PMC4183595, “Study on the Main Components Interaction from Flos Lonicerae and Fructus Forsythiae and Their Dissolution In Vitro and Intestinal Absorption in Rats” (PLoS ONE, 2014).
